From US20070225171A1 (priority 2001, published 2007)

How the values were obtained:
[1] = test system: SAD1 - Cultivar KY 160 genetically engineered to express a synthetic gene for tolerance to phenoxy herbicides; assay: Yield assay, 2,4-D sprayed on transgenic SAD1 tobacco; assay type: in vivo, Nicotiana tabacum; details: for Plant Yield / Percent Leaf Yield / Corrected Leaf Yield / Corrected Plant Yield / Leaf Yield: SAD1 tobacco, isooctyl ester formulation; for Plant Yield / Corrected Leaf Yield / Corrected Plant Yield / Leaf Yield: dry matter 21 days after spraying; for Percent Leaf Yield: 21 days after spraying
Method: (§1) The use of exogenously supplied synthetic auxins on agronomic crops to elicit direct non-herbicidal effects, with an emphasis on the potential enhancement of yield, was assessed using genetically-engineered (GE) tobacco plant lines expressing synthetic auxin metabolizing genes. Non-GE controls were used, permitting separation of the herbicidal and biological properties of the exogenously supplied synthetic auxins. Tobacco was utilized to model dry matter yield.
(§2) The research was conducted in a single phase entailing characterization of response variables when plants were subjected to maximum (1× rate=1 pound/acre of active ingredient) and low (¼×=4 ounces/acre of active ingredient) rates of exogenously applied 2,4-dichlorophenoxyacetic acid (2,4-D). GE lines of tobacco (dark fired cultivar “KY 160”) expressing a synthetic gene for auxin metabolism (SAD1 or SAD2) were used, along with non-GE lines of the same genotype as control material. Commercial tobacco production has long utilized decapitation (“topping”) to initiate a predictable increase in leaf weight, thickness, and dry matter yield. This yield increase is dependent upon variables, such as genotype and fertility. By utilizing controls of the same genotype and a fixed level of fertility, significant yield variation responses should be attributable to the treatment (exogenous auxin herbicide application).
(§3) The overall experimental design was comprised of three parallel completely randomized designs with spray rate and genotype as the main factors. Three replications were performed for each treatment within each experiment. Each replication was the average measurement of six plants. The tobacco lines were allowed to advance to the 6-8 leaf stage. Upon reaching this stage, the primary meristem was removed along with lower leaves so that only 4 leaves remained. Plants were then sprayed with herbicide and permitted to grow for an additional 21 days. At the end of this period, dry matter yields for both leaf and the whole plant were measured.
(§4) Yield data recorded for tobacco were leaf dry matter, leaf number, and total dry matter. Corrected plant yield and corrected leaf yield were calculated for each replication as the leaf dry matter divided by leaf number then multiplied by the expected number of leaves (6 plants×4 leaves=24). This corrected leaf yield was then added to stem yield fraction (arrived at by subtracting actual leaf yield from total plant yield) to create a corrected total plant yield. All tobacco yield measurements were recorded in grams after a 7-day drying period in ambient air dryers.
(§5) Seed of non-transgenic tobacco lines were germinated on MS03 (MS salts, B5 vitamins, 3% sucrose) medium. Transgenic seeds were germinated on the same medium augmented with 300 mg/L kanamycin monosulfate to allow detection of any seedlings failing to carry the transgene. Thirty days after germination, seedlings were transplanted to the greenhouse into flats holding 8 trays of 6 plants each for a total of 48 plants. Plants were permitted to grow for approximately 45 days, at which time 6-8 leaves had developed. Prior to spraying, the top of the plant retaining the uppermost two leaves was removed (decapitated) resulting in the retention of 4 fully-extended leaves for each plant.
(§6) For spray assays and for the yield studies, spraying was performed in an Allen Machine Works Spray Cabinet. Spray rates were established as the equivalent of 16 ounces of active ingredient per acre (1× rate), 4 ounces active ingredient/acre (¼× rate), and the control (no active ingredient per acre or 0×). The herbicide used was 2,4-D, isooctyl ester formulation (3.9 pounds of active ingredient/gallon) at equivalent rates noted above. To achieve this equivalent 1× field rate, 500 microliters of herbicide were diluted into a total volume of 50 ml. The ¼× field rate was achieved by diluting 125 microliters of herbicide in a 50 ml volume. […]

[2] = test system: SAD2 - Cultivar KY 160 genetically engineered to express a modified version of the SAD1 synthetic gene; assay: Yield assay, 2,4-D sprayed on transgenic SAD2 tobacco; assay type: in vivo, Nicotiana tabacum; details: for Plant Yield / Percent Leaf Yield / Corrected Leaf Yield / Corrected Plant Yield / Leaf Yield: SAD2 tobacco, isooctyl ester formulation; for Plant Yield / Corrected Leaf Yield / Corrected Plant Yield / Leaf Yield: dry matter 21 days after spraying; for Percent Leaf Yield: 21 days after spraying
Method: as §1, §2, §3, §4, §5, §6

[3] = test system: SAD2 - Cultivar UC82B genetically engineered to express a synthetic gene for tolerance to phenoxy herbicides; assay: Fruit yield assay, 2,4-D sprayed on transgenic SAD2 tomato; assay type: in vivo, Lycopersicon esculentum; details: for Total Yield (Fresh Fruit Yield) / Fruit Weight (Average Fresh Fruit Weight) / Total Flowers / Fruit per Plant / Total Fruit No.: SAD2 tomato; for Total Yield (Fresh Fruit Yield): harvested over 60 days; for Fruit Weight (Average Fresh Fruit Weight) / Total Flowers / Fruit per Plant / Total Fruit No.: 60 days; for Total Flowers: Flower Number/plant/replication/treatment; for Fruit per Plant: Fruit Number/plant/replication/treatment; for Total Fruit No.: Total Fruit Number/replication/treatment
Excerpt: The use of exogenously supplied synthetic auxins on agronomic crops to elicit direct non-herbicidal effects was further assessed using genetically-engineered tomato plant lines expressing a synthetic auxin metabolizing gene, and non-genetically-engineered controls. Tomato was utilized to model fruit retention (fruit set) and fruit yield. The transgenic tomato line was utilized in the T2 generation with the transgene fixed in a homozygous fashion. The tomato genotype UC82L was utilized as the control, as well as the background for tranformation with the pPZP211-PNPT-311-SAD2 binary plasmid. This genotype was chosen because it is more likely to closely approximate the behavior of field-grown tomatoes than some short-life-cycle laboratory strains of tomato.
In the same manner as for tobacco, the research was conducted in a single phase entailing characterization of response variables when plants were subjected to the maximum (1× rate=1 pound/acre of active ingredient) and low (¼×=4 ounces/acre of active ingredient) rates of exogenously applied 2,4-D. The overall experimental design was comprised of three parallel completely randomized designs with spray rate and genotype as the main factors. Three replications were performed for each treatment within each experiment. Each replication was the average of three plants that were harvested over a period of 60 days. Fruit number, fruit weight and flower number were measured directly, with average fruit weight and average fruit per plant being derived by dividing fruit weight and fruit number within a replication by the number of plants (3). Tomato fruit yield was measured on fresh fruit and recorded in grams.
The binary plasmid pPZP211-PNPT-311-SAD2 used for transformation was the same as that used in Example 1, and tomato (Lycopersicon esculentum) cultivar UC82B (a cultivar nearly identical to UC82L) was transformed by Agrobacterium-mediated transformation of leaf tissue with the binary plasmid as described in Example 1. Transgenic plants were produced from the transformed leaf tissue as described in Example 1.
Non-transgenic and transgenic seed were germinated and grown as described in Example 1 for tobacco. The transgenic tomato line was utilized in the T2 generation with the transgene fixed in a homozygous fashion.
The plants with 4 fully-extended leaves retained were sprayed as described in Example 1. Each replication (3 plants) was sprayed independently and permitted to dry before being moved back to the greenhouse for further growth for 60 days.
Fruit number, fruit weight, and flower number were measured directly during this 60-day period. Tomato fruit yield was measured on fresh fruit and recorded in grams.

[4] = 2,4-D rate 1X (1 pound active ingredient/acre)
[5] = 2,4-D rate ¼X (4 ounces active ingredient/acre)

## O=C(O)COc1ccc(Cl)cc1Cl [2,4-D, 2,4-dichlorophenoxyacetic acid]
[1]; [4]
  Plant Yield: 42.5 grams/plant/replication/treatment
[1]; 2,4-D rate 1X
  Percent Leaf Yield: 44.7%
  Corrected Leaf Yield: 19.1 grams/plant/replication/treatment
  Corrected Plant Yield: 42.7 grams/plant/replication/treatment
  Leaf Yield: 18.8 grams/plant/replication/treatment
[1]; [5]
  Plant Yield: 43.5 grams/plant/replication/treatment
[1]; 2,4-D rate ¼X
  Percent Leaf Yield: 40.5%
  Corrected Leaf Yield: 17.8 grams/plant/replication/treatment
  Corrected Plant Yield: 43.9 grams/plant/replication/treatment
  Leaf Yield: 17.4 grams/plant/replication/treatment
[1]; transgenic material (SAD1) sprayed with either the ¼× or 1× rate
  effect on yield: significant increase in yield
[2]; [4]
  Plant Yield: 48.8 grams/plant/replication/treatment
[2]; 2,4-D rate 1X
  Percent Leaf Yield: 42.2%
  Corrected Leaf Yield: 21.6 grams/plant/replication/treatment
  Corrected Plant Yield: 51.0 grams/plant/replication/treatment
  Leaf Yield: 19.4 grams/plant/replication/treatment
[2]; [5]
  Plant Yield: 43.9 grams/plant/replication/treatment
[2]; 2,4-D rate ¼X
  Percent Leaf Yield: 42.2%
  Corrected Leaf Yield: 19.1 grams/plant/replication/treatment
  Corrected Plant Yield: 45.2 grams/plant/replication/treatment
  Leaf Yield: 17.8 grams/plant/replication/treatment
[2]; transgenic material (SAD2) sprayed with either the ¼× or 1× rate
  effect on yield: significant increase in yield
[3]; spray rate 1X (1 pound active ingredient/acre), 2,4-D isooctyl ester formulation
  Total Yield (Fresh Fruit Yield): 131.9 grams/plant/replication/treatmen
[3]; spray rate 1X
  Fruit Weight (Average Fresh Fruit Weight): 13.7 grams/fruit/plant/replication/treatment
  Total Flowers: 19.7
  Fruit per Plant: 2.4
  Total Fruit No.: 9.7
[3]; spray rate ¼X (4 ounces active ingredient/acre), 2,4-D isooctyl ester formulation
  Total Yield (Fresh Fruit Yield): 122.9 grams/plant/replication/treatmen
[3]; spray rate ¼X
  Fruit Weight (Average Fresh Fruit Weight): 14.4 grams/fruit/plant/replication/treatment
  Total Flowers: 17.3
  Fruit per Plant: 2.2
  Total Fruit No.: 8.7
[3]; transgenic line, ¼× rate
  effect on average fruit weight: increase in average fruit weight
[3]; transgenic lines, ¼× rate
  effect on total flower number: increasing the number of flowers
